Reference: patent US20260191968A1, “PROTAC DEGRADERS OF MLLT1 AND/OR MLLT3” (DARK BLUE THERAPEUTICS LTD, priority 2024, published 2026)

Legend:
MV4-11 cells = assay: MV4-11 cellular proliferative assay, Assay Format B (CTG 2.0, 168 h); type: cell-based; conditions: Homo sapiens, 168 h (7 days), CTG 2.0, read-out: IC50 (MV4-11 cellular proliferative assay, Assay format B)
Protocol: MV4-11 cells at a confluency of ~50-80% was used for cell growth assay. 600 cells/well in a 384-well opaque cell culture plate (6007680; Perkin Elmer) were seeded in 40 μL of complete medium (IMDM+10% FBS+1X Penicillin-Streptomycin). Cells were incubated overnight at 37° C., 5% CO2. 10 mM DMSO stocks were prepared, cells were treated with 10 concentrations of test compounds starting from 1 uM or 100 nM, 3-fold dilution in 10 uL (5×concentration) of complete medium. Final DMSO concentration was 0.3%. Culture plates were centrifuged at 40×g, 30s. Cells were incubated with compounds for 168 h (7 days). After 7 days, 20 uL CTG 2.0 reagent (G9242; Promega) was added per well and luminescence reading was taken in Envision Xcite 2105 multimode plate reader. Data was analyzed in GraphPad Prism 10.0 and data was shown as % viability with respect to DMSO control and dose-response curves were generated using four parameter logistic regression. Assay quality was determined by z-factor calculation using positive and negative controls.

MLLT1 = biological target: T1, MLLT1 (Homo sapiens, UniProt Q03111); assay: MLLT1 degradation assay in MV4-11 cells (JESS chemiluminescent detection), three concentrations, 24 h; type: cell-based; conditions: with respect to DMSO control
T1 construct: host or cells: MV4-11
T1 sequence (Q03111 1-559): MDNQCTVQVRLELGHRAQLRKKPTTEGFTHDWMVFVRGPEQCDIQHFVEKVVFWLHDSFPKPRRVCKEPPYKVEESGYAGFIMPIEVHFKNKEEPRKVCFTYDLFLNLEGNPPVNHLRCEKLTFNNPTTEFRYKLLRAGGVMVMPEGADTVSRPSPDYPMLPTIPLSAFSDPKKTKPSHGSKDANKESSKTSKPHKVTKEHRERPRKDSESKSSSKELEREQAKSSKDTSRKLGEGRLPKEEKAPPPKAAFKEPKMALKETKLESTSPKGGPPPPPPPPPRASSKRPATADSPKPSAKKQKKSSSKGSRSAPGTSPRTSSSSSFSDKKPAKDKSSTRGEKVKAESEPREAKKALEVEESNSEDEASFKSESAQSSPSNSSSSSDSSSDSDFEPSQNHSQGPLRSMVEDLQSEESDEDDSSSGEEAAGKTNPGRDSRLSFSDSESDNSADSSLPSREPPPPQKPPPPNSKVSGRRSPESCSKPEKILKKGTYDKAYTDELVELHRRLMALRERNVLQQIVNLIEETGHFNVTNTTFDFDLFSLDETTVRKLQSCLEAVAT
Method in brief: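 MV4-11 cells treated 24 h at 37° C, 5% CO2 with 1000, 100 and 10 nM compound (0.1% DMSO final). MLLT1 quantified by automated capillary chemiluminescent immunodetection; band peak area expressed as % degradation relative to DMSO control.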

Compound | IC50 (MV4-11 cells) [nM] | MLLT1% Degradation @ 0.01 μM (MLLT1) | MLLT1% Degradation @ 0.1 μM (MLLT1) | MLLT1% Degradation @ 1 μM (MLLT1)
CN1CCC[C@@H]1c1cc2cnc(NC(=O)c3ccc(N4CCN(CC5CCN(c6cccc7c6CN([C@@H]6CCC(=O)NC6=O)C7=O)CC5)CC4)cc3)cc2[nH]1 (relative stereo) [Example 118, 4-(4-((1-(2-((rel-R)-2,6-dioxopiperidin-3-yl)-1-oxoisoindolin-4-yl)piperidin-4-yl)methyl)piperazin-1-yl)-N-(2-((R)-1-methylpyrrolidin-2-yl)-1H-pyrrolo[3,2-c]pyridin-6-yl)benzamide] | ≤ 100 | C (Category C: 25% ≤ C < 50% degradation) | B (Category B: 50% ≤ B < 75% degradation) | B (Category B: 50% ≤ B < 75% degradation)
CN1CCC[C@@H]1c1cc2cnc(NC(=O)c3ccc(N4CCN(Cc5ccc(-c6cccc7c6CN(C6CCC(=O)NC6=O)C7=O)cc5)CC4)nc3)cc2[nH]1 (stereo partly drawn) [Example 129, 6-(4-(4-(2-(2,6-dioxopiperidin-3-yl)-1-oxoisoindolin-4-yl)benzyl)piperazin-1-yl)-N-(2-((R)-1-methylpyrrolidin-2-yl)-1H-pyrrolo[3,2-c]pyridin-6-yl)nicotinamide] | ≤ 100 | B (Category B: 50% ≤ B < 75% degradation) | B (Category B: 50% ≤ B < 75% degradation) | C (Category C: 25% ≤ C < 50% degradation)
CN1CCC[C@@H]1c1cc2cnc(NC(=O)c3ccc(-c4cnn(CCCCC#Cc5cccc6c5CN(C5CCC(=O)NC5=O)C6=O)c4)cc3)cc2[nH]1 (stereo partly drawn) [Example 59, 4-(1-(6-(2-(2,6-dioxopiperidin-3-yl)-1-oxoisoindolin-4-yl)hex-5-yn-1-yl)-1H-pyrazol-4-yl)-N-(2-((R)-1-methylpyrrolidin-2-yl)-1H-pyrrolo[3,2-c]pyridin-6-yl)benzamide] | ≤ 100 | A (Category A: A ≥ 75% degradation) | A (Category A: A ≥ 75% degradation) | B (Category B: 50% ≤ B < 75% degradation)
CN1CCC[C@@H]1c1cc2cnc(NC(=O)c3cnc(N4CCC(C#Cc5cccc6c5CN(C5CCC(=O)NC5=O)C6=O)CC4)cn3)cc2[nH]1 (stereo partly drawn) [Example 186, 5-(4-((2-(2,6-dioxopiperidin-3-yl)-1-oxoisoindolin-4-yl)ethynyl)piperidin-1-yl)-N-(2-((R)-1-methylpyrrolidin-2-yl)-1H-pyrrolo[3,2-c]pyridin-6-yl)pyrazine-2-carboxamide] | ≤ 100 | B (Category B: 50% ≤ B < 75% degradation) | A (Category A: A ≥ 75% degradation) | B (Category B: 50% ≤ B < 75% degradation)
CN1CC2(CC2)CC1c1cc2cnc(NC(=O)c3ccc(CCCCC#Cc4cccc5c4CN(C4CCC(=O)NC4=O)C5=O)nc3)cc2[nH]1 (stereo not drawn) [Example 86, 6-(6-(2-(2,6-dioxopiperidin-3-yl)-1-oxoisoindolin-4-yl)hex-5-yn-1-yl)-N-(2-((rel-R)-5-methyl-5-azaspiro[2.4]heptan-6-yl)-1H-pyrrolo[3,2-c]pyridin-6-yl)nicotinamide] | ≤ 100 | A (Category A: A ≥ 75% degradation) | A (Category A: A ≥ 75% degradation) | B (Category B: 50% ≤ B < 75% degradation)
CN1CCC[C@@H]1c1cc2cnc(NC(=O)c3ccc(CCCCC#Cc4cccc5c4CN(C4CCC(=O)NC4=O)C5=O)cc3F)cc2[nH]1 (stereo partly drawn) [Example 112, 4-(6-(2-(2,6-dioxopiperidin-3-yl)-1-oxoisoindolin-4-yl)hex-5-yn-1-yl)-2-fluoro-N-(2-((R)-1-methylpyrrolidin-2-yl)-1H-pyrrolo[3,2-c]pyridin-6-yl)benzamide] | ≤ 100 | A (Category A: A ≥ 75% degradation) | A (Category A: A ≥ 75% degradation) | A (Category A: A ≥ 75% degradation)
CN1CCC[C@@H]1c1cc2cnc(NC(=O)c3ccc(CCCc4ccc(-c5cccc6c5CN(C5CCC(=O)NC5=O)C6=O)cc4)cc3)cc2[nH]1 (stereo partly drawn) [Example 199, 4-(3-(4-(2-(2,6-dioxopiperidin-3-yl)-1-oxoisoindolin-4-yl)phenyl)propyl)-N-(2-((R)-1-methylpyrrolidin-2-yl)-1H-pyrrolo[3,2-c]pyridin-6-yl)benzamide] | ≤ 100 | A (Category A: A ≥ 75% degradation) | A (Category A: A ≥ 75% degradation) | A (Category A: A ≥ 75% degradation)

Continued, in another order:

IC50 (MV4-11 cells) [nM] | MLLT1% Degradation @ 0.01 μM (MLLT1) | MLLT1% Degradation @ 0.1 μM (MLLT1) | Compound | MLLT1% Degradation @ 1 μM (MLLT1)
≤ 100 | A (Category A: A ≥ 75% degradation) | A (Category A: A ≥ 75% degradation) | CN1CCC[C@@H]1c1cc2cnc(NC(=O)c3ccc(N4CCC(CC#Cc5cccc6c5CN(C5CCC(=O)NC5=O)C6=O)CC4)nc3)cc2[nH]1 (stereo partly drawn) [Example 16, 6-(4-(3-(2-(2,6-dioxopiperidin-3-yl)-1-oxoisoindolin-4-yl)prop-2-yn-1-yl)piperidin-1-yl)-N-(2-((R)-1-methylpyrrolidin-2-yl)-1H-pyrrolo[3,2-c]pyridin-6-yl)nicotinamide] | B (Category B: 50% ≤ B < 75% degradation)
≤ 100 | A (Category A: A ≥ 75% degradation) | A (Category A: A ≥ 75% degradation) | CN1CCC[C@@H]1c1[nH]c2cc(NC(=O)c3ccc(N4CCC(OCC5CCN(c6cccc7c6CN(C6CCC(=O)NC6=O)C7=O)CC5)CC4)nc3)ncc2c1Cl (stereo partly drawn) [Example 191, N-(3-chloro-2-((R)-1-methylpyrrolidin-2-yl)-1H-pyrrolo[3,2-c]pyridin-6-yl)-6-(4-((1-(2-(2,6-dioxopiperidin-3-yl)-1-oxoisoindolin-4-yl)piperidin-4-yl)methoxy)piperidin-1-yl)nicotinamide] | A (Category A: A ≥ 75% degradation)
≤ 100 | A (Category A: A ≥ 75% degradation) | A (Category A: A ≥ 75% degradation) | CN1CCC[C@@H]1c1cc2cnc(NC(=O)c3ccc(CCCC#Cc4cccc5c4CN(C4CCC(=O)NC4=O)C5=O)cn3)cc2[nH]1 (stereo partly drawn) [Example 197, 5-(5-(2-(2,6-dioxopiperidin-3-yl)-1-oxoisoindolin-4-yl)pent-4-yn-1-yl)-N-(2-((R)-1-methylpyrrolidin-2-yl)-1H-pyrrolo[3,2-c]pyridin-6-yl)picolinamide] | A (Category A: A ≥ 75% degradation)
≤ 100 | A (Category A: A ≥ 75% degradation) | A (Category A: A ≥ 75% degradation) | CN1CCC[C@@H]1c1cc2cnc(NC(=O)c3ccc(N4CCC(CC#Cc5cccc6c5CN(C5CCC(=O)NC5=O)C6=O)CC4)nn3)cc2[nH]1 (stereo partly drawn) [Example 153, 6-(4-(3-(2-(2,6-dioxopiperidin-3-yl)-1-oxoisoindolin-4-yl)prop-2-yn-1-yl)piperidin-1-yl)-N-(2-((R)-1-methylpyrrolidin-2-yl)-1H-pyrrolo[3,2-c]pyridin-6-yl)pyridazine-3-carboxamide] | A (Category A: A ≥ 75% degradation)
